Source: ChEMBL document CHEMBL1201862, “PubChem BioAssay data set” (2004)
Structures can show the parent of a compound that is named as a salt. Activity calls are given as the source filed them.

How the values were obtained:
Kallikrein-7 = Kallikrein-7 (Homo sapiens, UniProt P49862); assay: Fluorescence Intensity-based biochemical primary high throughput dose response assay to identify activators of kallikrein-7 (K7) zymogen.
[1] = target: Photoreceptor-specific nuclear receptor (Homo sapiens, UniProt Q9Y5X4); format: functional, cell-based;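 note: CHO-S cells with Gal4-NCOR and VP16-NR2E3 two-hybrid luciferase reporter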
INS1 = assay: INS-1E survival protection against cytokine death – cell-based, luminescence, retest, dose response (AID 449756); format: functional; details: Rattus norvegicus;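 note: cell death triggered by IL-1 beta plus TNF-alpha plus IFN-gamma mixture; protective hits raise ATP signal compared with cytokine alone wells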
Cytochrome P450 2C9 = Cytochrome P450 2C9 (Homo sapiens, UniProt P11712)
Cytochrome P450 3A4 = Cytochrome P450 3A4 (Homo sapiens, UniProt P08684);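 note: CYP3A4 tested as one member of a cytochrome P450 panel screen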
[2] = target: T1, Sentrin-specific protease 8 (Homo sapiens, UniProt Q96LD8); format: functional
T1 sequence (Q96LD8 whole entry): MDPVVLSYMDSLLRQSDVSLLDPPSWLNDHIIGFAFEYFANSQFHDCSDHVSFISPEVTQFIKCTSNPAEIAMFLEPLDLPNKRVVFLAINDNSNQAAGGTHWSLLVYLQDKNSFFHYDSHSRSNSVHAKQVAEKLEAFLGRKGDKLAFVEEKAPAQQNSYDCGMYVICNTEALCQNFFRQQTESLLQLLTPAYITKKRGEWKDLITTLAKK

[3] = target: T1, Sentrin-specific protease 8; format: functional; remark: listed apart in the source
cells [4] = format: functional, cell-based
[5] = target: T2, DNA repair and recombination protein RAD54-like (Homo sapiens, UniProt Q92698); assay: RAD54 Holliday junction migration blockers – biochemical, fluorescence, cherry-picked samples, dose series, confirmation (AID 651657); format: functional
T2 sequence (Q92698 whole entry): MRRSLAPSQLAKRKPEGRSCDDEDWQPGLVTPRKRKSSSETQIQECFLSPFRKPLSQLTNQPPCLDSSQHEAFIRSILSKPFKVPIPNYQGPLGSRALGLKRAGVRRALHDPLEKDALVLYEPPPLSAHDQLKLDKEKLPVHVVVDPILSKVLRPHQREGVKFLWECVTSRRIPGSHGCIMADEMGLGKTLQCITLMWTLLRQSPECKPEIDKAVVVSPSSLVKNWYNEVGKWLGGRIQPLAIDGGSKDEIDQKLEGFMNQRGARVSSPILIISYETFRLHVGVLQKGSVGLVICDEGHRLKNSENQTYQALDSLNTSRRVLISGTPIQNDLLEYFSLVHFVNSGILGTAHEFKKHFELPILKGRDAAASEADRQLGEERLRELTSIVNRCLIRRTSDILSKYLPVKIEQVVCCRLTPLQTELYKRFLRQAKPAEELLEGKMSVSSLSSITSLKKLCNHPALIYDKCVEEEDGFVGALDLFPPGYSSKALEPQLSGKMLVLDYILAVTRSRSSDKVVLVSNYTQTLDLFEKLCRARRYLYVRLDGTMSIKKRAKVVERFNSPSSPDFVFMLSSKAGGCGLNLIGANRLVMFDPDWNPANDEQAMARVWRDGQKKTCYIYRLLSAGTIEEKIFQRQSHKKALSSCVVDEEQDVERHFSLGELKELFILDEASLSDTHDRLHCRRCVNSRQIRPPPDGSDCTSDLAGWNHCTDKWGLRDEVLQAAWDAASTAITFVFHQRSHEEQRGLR

[6] = NIH3T3 cell viability loss – ATP luminescence, mouse fibroblasts, counter-screen, dose response (AID 2010); format: functional, cell-based;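 note: cells exposed to compound for about 90 hours before reading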
[7] = Trypanosoma cruzi growth suppression in host cells – NIH3T3 host cells, beta-gal luminescence, confirmation (AID 2044); format: functional, cell-based;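 note: intracellular parasites grown in NIH/3T3 mouse fibroblasts as host cells; luminescent beta-galactosidase reporter signal from transgenic T. cruzi replicating inside host cells; inhibitors lower the luminescence signal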
cells [8] = format: functional, cell-based; remark: listed apart in the source
Protein Tat = target: T3, Protein Tat (Human immunodeficiency virus type 1 group M subtype B (isolate HXB2)(HIV-1), UniProt P04608); format: functional;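 note: tat binding to TAR RNA read out by fluorescence polarization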
T3 sequence (P04608 whole entry): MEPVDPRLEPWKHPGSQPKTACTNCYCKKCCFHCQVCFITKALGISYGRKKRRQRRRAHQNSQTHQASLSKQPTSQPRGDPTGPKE

[9] = target: T4, Corticotropin-releasing factor receptor 2/Corticotropin-releasing factor-binding protein (Homo sapiens, UniProt P24387+Q13324); assay: activators of CRF receptor 2 with binding protein – uHTS hits, confirmation (AID 602473); format: functional; details: read-out: EC50_Mean
T4 sequence (Q13324 whole entry): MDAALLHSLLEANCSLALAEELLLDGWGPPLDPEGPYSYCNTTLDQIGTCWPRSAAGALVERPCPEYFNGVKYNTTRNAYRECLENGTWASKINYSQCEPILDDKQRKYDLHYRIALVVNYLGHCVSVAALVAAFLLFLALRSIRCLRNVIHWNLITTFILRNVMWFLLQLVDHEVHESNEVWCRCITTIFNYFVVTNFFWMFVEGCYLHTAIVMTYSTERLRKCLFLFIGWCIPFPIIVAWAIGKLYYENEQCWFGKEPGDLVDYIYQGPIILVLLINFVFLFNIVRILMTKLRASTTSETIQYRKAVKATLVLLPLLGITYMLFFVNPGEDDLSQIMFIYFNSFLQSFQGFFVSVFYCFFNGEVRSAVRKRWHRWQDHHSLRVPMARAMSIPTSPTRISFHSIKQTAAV
T4 sequence (P24387 whole entry): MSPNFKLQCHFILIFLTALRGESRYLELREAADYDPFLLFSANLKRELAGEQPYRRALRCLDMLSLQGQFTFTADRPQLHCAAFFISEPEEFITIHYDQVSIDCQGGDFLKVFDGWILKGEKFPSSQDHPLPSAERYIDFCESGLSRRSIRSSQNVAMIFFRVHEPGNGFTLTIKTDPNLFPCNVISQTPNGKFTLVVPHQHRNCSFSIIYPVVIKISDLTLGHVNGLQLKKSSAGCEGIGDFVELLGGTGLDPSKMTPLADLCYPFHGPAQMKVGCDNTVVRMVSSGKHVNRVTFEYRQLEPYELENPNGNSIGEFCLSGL

[10] = target: T4, Corticotropin-releasing factor receptor 2/Corticotropin-releasing factor-binding protein; assay: Dose Response confirmation of uHTS hits for small molecule antagonists of the CRF-binding protein and CRF-R2 receptor complex.; format: functional; details: read-out: IC50_Mean
[11] = blockers of CRF-binding protein–CRF-R2 complex – cell-based, uHTS hits, 384-well, dose response (AID 651639); format: functional, Homo sapiens; details: read-out: IC50_Mean
[12] = viability loss in THP-1 monocytes – THP-1 cells, cytotoxicity control for Vif-APOBEC3G degradation inhibitor project, dose response (AID 1117359); format: functional; details: THP-1
[13] = reduced cellular PGC1a acetyl-lysine signal – cell-based, cherry-picked samples, dose response (AID 720514); format: functional;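 note: potency may reflect raised or lowered acetylation signal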
[14] = target: T5, Hepatocyte nuclear factor 4-alpha (Homo sapiens, UniProt P41235); format: functional, cell-based;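 note: biochemical luminescence-based dose-response counterscreen measuring inhibition of HNF4 dimerization, run alongside a screen for blockers of ABHD5–perilipin-5 interaction; split luciferase complementation of HNF4 fusion proteins in cell lysate measuring dimerization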
T5 sequence (P41235 whole entry): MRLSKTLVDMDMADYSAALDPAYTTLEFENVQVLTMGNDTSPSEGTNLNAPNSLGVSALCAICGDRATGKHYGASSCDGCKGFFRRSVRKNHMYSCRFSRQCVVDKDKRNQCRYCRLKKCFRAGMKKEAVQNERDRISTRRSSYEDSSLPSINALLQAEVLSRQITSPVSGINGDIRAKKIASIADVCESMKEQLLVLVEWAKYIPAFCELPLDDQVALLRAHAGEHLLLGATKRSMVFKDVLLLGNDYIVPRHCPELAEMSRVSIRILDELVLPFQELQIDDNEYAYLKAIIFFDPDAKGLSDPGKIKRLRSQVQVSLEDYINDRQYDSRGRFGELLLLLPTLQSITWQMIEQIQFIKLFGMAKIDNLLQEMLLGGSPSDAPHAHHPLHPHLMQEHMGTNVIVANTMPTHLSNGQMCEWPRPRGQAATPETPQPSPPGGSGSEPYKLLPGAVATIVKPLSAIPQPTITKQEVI

Cytochrome P450 1A2 = target: T6, Cytochrome P450 1A2 (Homo sapiens, UniProt P05177);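 note: PubChem cytochrome P450 panel assay, CYP1A2 panel member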
T6 sequence (P05177 whole entry): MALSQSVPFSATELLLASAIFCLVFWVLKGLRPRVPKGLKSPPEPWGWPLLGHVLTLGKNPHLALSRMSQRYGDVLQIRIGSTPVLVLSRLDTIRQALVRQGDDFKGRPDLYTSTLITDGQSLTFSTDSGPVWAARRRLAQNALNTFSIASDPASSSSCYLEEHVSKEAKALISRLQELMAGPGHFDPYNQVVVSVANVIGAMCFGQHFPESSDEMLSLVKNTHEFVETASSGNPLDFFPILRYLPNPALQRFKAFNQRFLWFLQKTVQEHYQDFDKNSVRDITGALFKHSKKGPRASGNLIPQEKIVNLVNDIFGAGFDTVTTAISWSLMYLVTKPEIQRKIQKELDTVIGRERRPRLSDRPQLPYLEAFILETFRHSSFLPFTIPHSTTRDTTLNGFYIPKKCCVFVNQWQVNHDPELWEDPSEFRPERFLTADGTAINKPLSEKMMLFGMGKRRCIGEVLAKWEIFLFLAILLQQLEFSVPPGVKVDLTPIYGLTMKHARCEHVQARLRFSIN

[15] = target: T7, Polyadenylate-binding protein 1 (Homo sapiens, UniProt P11940); assay: MLLE binding blockers, Cy5 peptide tracer – biochemical, fluorescence polarization, Cy5-PAM2 peptide, secondary, miRNA deadenylation inhibitor project, dose response (AID 602260); format: functional; details: read-out: IC50_Mean
[16] = target: T7, Polyadenylate-binding protein 1; assay: MLLE domain peptide-binding blockers, IC50 – biochemical, fluorescence polarization, FITC-PAM2 peptide, dose response (AID 602259); format: functional; details: read-out: IC50_Mean
[17] = blockers of bursicon-stimulated LGR2 cAMP reporter – cell-based, HEK293, CRE-luciferase reporter, cherry pick, set 2, dose response (AID 743343); format: functional;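 note: transfected cells were stimulated with diluted bursicon conditioned medium after compound addition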
[18] = viability of HCT116 lacking mutant beta-catenin – cell-based, human colon tumor, dose response (AID 1045); format: functional;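 note: HCT116 colon tumor cells with beta catenin knocked out; cells exposed to compound for 60 hours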
[19] = viability loss in HEK293 cells – cell-based, plate reader, cherry-picked samples, cytotoxicity control, dose response (AID 743446); format: functional
[20] = viability of PTEN-deleted HCT116 cells – cell-based, HCT116 PTEN knockout, dose response (AID 1047); format: functional;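 note: HCT116 colon tumor cells with PTEN knocked out; cells exposed to compound for 60 hours before readout; potency for loss of cell viability measured by luminescence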
[21] = A549 cell cytotoxicity, dose response, cytotoxicity control, plate reader, cherry-pick, antagonist series (AID 743412); format: functional, cell-based
[22] = blockade of melanocortin 4 receptor signaling – cell-based, plate reader, cherry pick, counter-screen for LGR2 antagonist project, dose response (AID 743444); format: functional;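 note: transfected HEK 293 cells stimulated with alpha-MSH peptide; potency of inhibitors of the alpha-MSH evoked signal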

Kallikrein-7, sequence (P49862 whole entry, the tested form may be a part): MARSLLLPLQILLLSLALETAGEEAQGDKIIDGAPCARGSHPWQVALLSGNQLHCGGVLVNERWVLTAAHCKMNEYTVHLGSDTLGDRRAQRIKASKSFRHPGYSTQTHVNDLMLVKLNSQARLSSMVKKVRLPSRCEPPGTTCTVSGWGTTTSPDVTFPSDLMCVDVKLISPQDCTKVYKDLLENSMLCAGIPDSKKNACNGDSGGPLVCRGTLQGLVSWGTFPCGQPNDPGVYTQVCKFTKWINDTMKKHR
Cytochrome P450 2C9, sequence (P11712 whole entry): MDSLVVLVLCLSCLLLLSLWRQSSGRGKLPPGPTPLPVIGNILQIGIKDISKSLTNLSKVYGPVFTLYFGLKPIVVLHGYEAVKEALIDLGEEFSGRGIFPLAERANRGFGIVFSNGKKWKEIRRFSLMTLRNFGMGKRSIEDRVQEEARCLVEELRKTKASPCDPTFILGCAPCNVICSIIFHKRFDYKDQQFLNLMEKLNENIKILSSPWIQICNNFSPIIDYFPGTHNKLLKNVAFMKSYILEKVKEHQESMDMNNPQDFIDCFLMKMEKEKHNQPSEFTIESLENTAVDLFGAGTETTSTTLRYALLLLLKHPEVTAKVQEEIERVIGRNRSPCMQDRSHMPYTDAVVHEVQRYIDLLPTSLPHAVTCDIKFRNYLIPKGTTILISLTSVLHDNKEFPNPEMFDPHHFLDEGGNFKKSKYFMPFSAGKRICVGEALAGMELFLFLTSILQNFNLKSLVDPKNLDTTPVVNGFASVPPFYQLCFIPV
Photoreceptor-specific nuclear receptor, sequence (Q9Y5X4 whole entry, the tested form may be a part): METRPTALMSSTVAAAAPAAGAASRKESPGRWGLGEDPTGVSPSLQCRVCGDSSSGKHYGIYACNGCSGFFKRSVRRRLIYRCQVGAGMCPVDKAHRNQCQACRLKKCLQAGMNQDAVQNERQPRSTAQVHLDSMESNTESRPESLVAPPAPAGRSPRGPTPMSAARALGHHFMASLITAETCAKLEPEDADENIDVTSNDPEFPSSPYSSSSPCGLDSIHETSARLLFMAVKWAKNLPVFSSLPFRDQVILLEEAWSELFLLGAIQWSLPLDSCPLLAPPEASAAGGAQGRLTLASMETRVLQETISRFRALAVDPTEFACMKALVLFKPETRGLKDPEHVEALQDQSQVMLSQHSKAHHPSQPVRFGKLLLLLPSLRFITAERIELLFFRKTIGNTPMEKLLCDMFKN
Cytochrome P450 3A4, sequence (P08684 whole entry): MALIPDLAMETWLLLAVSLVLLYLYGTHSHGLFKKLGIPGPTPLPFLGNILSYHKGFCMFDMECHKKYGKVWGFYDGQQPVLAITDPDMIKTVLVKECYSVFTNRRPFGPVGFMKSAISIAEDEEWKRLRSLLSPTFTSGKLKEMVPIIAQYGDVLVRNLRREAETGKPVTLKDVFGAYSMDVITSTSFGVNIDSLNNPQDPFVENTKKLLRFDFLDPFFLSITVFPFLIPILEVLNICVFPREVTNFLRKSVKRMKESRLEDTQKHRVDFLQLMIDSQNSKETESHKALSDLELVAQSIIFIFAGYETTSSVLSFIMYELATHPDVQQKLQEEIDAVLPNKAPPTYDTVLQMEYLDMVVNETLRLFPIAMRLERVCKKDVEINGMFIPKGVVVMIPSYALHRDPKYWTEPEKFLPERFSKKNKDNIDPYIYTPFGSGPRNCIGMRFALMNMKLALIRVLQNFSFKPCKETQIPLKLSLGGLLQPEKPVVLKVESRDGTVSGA
T7 sequence (P11940 whole entry, the tested form may be a part): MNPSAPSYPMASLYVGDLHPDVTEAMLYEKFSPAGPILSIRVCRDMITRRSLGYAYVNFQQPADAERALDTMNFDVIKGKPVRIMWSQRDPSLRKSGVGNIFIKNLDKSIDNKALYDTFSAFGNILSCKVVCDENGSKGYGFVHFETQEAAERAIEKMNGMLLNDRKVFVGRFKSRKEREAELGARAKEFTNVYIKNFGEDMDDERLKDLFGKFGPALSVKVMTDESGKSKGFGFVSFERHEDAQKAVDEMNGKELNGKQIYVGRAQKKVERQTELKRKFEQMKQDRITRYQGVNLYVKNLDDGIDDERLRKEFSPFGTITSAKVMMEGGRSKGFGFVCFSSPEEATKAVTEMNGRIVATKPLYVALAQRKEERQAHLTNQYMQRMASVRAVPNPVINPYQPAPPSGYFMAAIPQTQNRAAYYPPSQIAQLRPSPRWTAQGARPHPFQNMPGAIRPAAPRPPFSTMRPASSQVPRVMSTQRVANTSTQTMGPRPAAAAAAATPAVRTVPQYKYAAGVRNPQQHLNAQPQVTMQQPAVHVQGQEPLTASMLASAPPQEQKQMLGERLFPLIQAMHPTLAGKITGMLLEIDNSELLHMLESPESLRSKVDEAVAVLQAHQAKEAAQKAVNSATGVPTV

Cc1cc(N2CCCC2)nc2ccc(NC(=S)NCCCOC(C)C)cc12
EC50 (Kallikrein-7): > 69.5 µM (inactive)

O=c1cc(N2CCN(c3cccc(Cl)c3)CC2)[nH]c(=O)n1C1CCCCC1
IC50 [1]: 0.0374 µM (active)
AC50 (INS1): 1.15 µM (active)
AC50 (Cytochrome P450 2C9): 3.16 µM (inconclusive)
AC50 (Cytochrome P450 3A4): 3.55 µM (inconclusive)

Cc1ccc(C(=O)Nc2ccc3nccnc3c2)cc1
EC50 (Kallikrein-7): 9.72 µM (active)
AC50 (Cytochrome P450 2C9): 35.5 µM (inconclusive)

CC1(OC(=O)C2CCCC2)C(=O)C=C2C=C3CCCCN3C=C2C1=O (stereo unspecified)
IC50 [2]: 3.82 µM (active)
IC50 [3]: 4.28 µM (active)

COc1cc(OC)c2nc(C)c3c(c2c1)N(c1ccc(O)cc1)CC3
EC50 (cells [4]): > 350 µM (not active)
AC50 [5]: 9.09 µM (active)
EC50 [6]: > 60 µM (not active)
EC50 [7]: 2.49 µM (active)
EC50 (cells [8]): > 350 µM (not active)
AC50 (Cytochrome P450 3A4): 10 µM (inconclusive)

CC1(OC(=O)c2ccc(Cl)nc2)C(=O)C=C2C=C3CCCN3C=C2C1=O (stereo unspecified)
IC50 [2]: 5.33 µM (active)
IC50 [3]: 8.11 µM (active)

CC(C)CCN1CCN(Cc2cccn2-c2cccnc2)CC1CCO (stereo unspecified)
IC50 (Protein Tat): > 100 µM (active)

CCOC(=O)c1c(C)n(C)c2ccc(OCC(O)CN3CCC(C)CC3)cc12 (stereo unspecified)
AC50 [5]: 56.3 µM (active)

CCc1nnc(NS(=O)(=O)c2ccc(NC(=S)NC(=O)/C=C/c3ccccc3)cc2)s1
EC50 [9]: > 53 µM (inactive)
IC50 [10]: < 0.368 µM (active)
IC50 [11]: > 20 µM (inactive)

O=C(c1cc2n(n1)C(C(F)(F)F)CC(c1ccco1)N2)N1CCc2ccccc2C1 (stereo unspecified)
IC50 (Protein Tat): > 100 µM (active)

COc1cc(C)c(C2NC(=O)c3ccccc3N2)cc1C (stereo unspecified)
CC50 [12]: 2.86 µM (active)

O=C1C=CCCN1C(=O)/C=C/c1ccccc1Cl
AC50 [13]: 0.617 µM (active)

Cc1cc(Cl)cc2c1NC(=O)[C@]21[C@@H]2C(=O)N(Cc3ccccc3)C(=O)[C@@H]2[C@@H]2CCCN21
IC50 (Protein Tat): > 100 µM (active)

O=c1c2ccccc2n(Cc2ccc(F)cc2)c(=O)n1C1CCCC1
EC50 [9]: > 53 µM (inactive)
IC50 [10]: 3.48 µM (active)
IC50 [11]: > 20 µM (inactive)

CCN(CC)CCOCCOC(=O)C1(c2ccccc2)CCCC1 [CARBETAPENTANE CITRATE]
IC50 [14]: 10.9 µM (inactive)
AC50 (Cytochrome P450 1A2): 12.6 µM (inconclusive)

Cc1ccc(S(=O)(=O)N(CC(=O)Nc2ccccc2C(=O)O)c2ccc(Cl)cc2)cc1
EC50 [9]: > 53 µM (inactive)
IC50 [10]: 10.3 µM (active)
IC50 [11]: 14.4 µM (active)

CCOC1=CC2=C(C(=O)C(Cl)=CC2=O)[C@@H]2CN(S(=O)(=O)c3ccc(C)cc3)[C@@H](c3ccccc3)[C@H]12
IC50 [15]: > 66 µM (inactive)
IC50 [14]: 0.814 µM (active)
IC50 [16]: > 66 µM (inactive)

Cc1ccc(C#N)c(SCc2nnc(-c3ccc(Cl)cc3)o2)n1
AC50 [17]: 0.181 µM (active)
IC50 [1]: 1.47 µM (active)
EC50 [18]: 15.7 µM (active)
AC50 [19]: > 52 µM (inactive)
EC50 [20]: 8.1 µM (active)
AC50 [21]: 30.9 µM (active)
AC50 [22]: 0.209 µM (active)

Cc1cccc(C)c1NC(=O)C(c1ccnc2ccccc12)n1c(=O)c(-c2ccco2)nc2ccccc21 (stereo unspecified)
IC50 [14]: 3.64 µM (active)

Cc1cccc(C)c1NC(=O)C(c1ccccc1)N1CC(=O)Nc2ccccc21 (stereo unspecified)
EC50 (Kallikrein-7): > 69.5 µM (inactive)
